# Source: US8993756B2 (Merck Sharp & Dohme Corp., priority 2011, dated 2015)
# Legend:
# JAK2 = JAK2 (Homo sapiens (Human), UniProt O60674); assay: Jak Biochemical HTRF Assay (JAK2); conditions: recombinant GST-tagged catalytic domain, [ATP] 8.5 μM
# JAK3 = JAK3 (Homo sapiens (Human), UniProt P52333); assay: Jak Biochemical HTRF Assay (JAK3); conditions: recombinant GST-tagged catalytic domain, [ATP] 2.9 μM
# JAK3, sequence (P52333 822-1111): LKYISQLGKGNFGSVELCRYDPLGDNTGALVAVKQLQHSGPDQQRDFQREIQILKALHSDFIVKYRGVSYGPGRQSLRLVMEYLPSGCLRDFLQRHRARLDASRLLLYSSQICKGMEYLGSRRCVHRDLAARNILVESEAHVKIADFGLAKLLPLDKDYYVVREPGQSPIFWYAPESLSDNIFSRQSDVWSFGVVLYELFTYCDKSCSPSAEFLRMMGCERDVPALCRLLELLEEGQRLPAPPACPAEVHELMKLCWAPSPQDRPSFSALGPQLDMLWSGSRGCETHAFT
# JAK2, sequence (O60674 849-1124): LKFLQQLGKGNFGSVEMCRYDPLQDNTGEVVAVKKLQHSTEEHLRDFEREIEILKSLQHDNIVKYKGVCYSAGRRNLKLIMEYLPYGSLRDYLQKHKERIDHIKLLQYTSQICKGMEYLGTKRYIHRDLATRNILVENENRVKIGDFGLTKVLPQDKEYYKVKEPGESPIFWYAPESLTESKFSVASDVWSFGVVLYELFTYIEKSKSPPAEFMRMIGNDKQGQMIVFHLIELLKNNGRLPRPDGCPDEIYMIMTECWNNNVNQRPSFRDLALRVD
structure (smiles),measurement,setting,value
"C=C(CNS(C)(=O)=O)C(=O)Nc1cccc(-c2ncnc3[nH]cc(C(=O)OCC)c23)c1 [Example 13-1, Ethyl 4-(3-(2-(methylsulfonamidomethyl)acrylamido)phenyl)-7H-pyrrolo[2,3-d]pyrimidine-5-carboxylate]",IC50,JAK2,> 1500 nM
same,IC50,JAK3,0.052 nM
"C=C(CN)C(=O)Nc1cccc(-c2ncnc3[nH]cc(C(=O)OCC)c23)c1 [Example 13-2, Ethyl 4-(3-(2-(aminomethyl)acrylamido)phenyl)-7H-pyrrolo[2,3-d]pyrimidine-5-carboxylate]",IC50,JAK2,> 1500 nM
same,IC50,JAK3; given as range class,< 10 nM
"C=C(CNC(C)=O)C(=O)Nc1cccc(-c2ncnc3[nH]cc(C(=O)OCC)c23)c1 [Example 13-3, ethyl 4-(3-(2-(acetamidomethyl)acrylamido)phenyl)-7H-pyrrolo[2,3-d]pyrimidine-5-carboxylate]",IC50,JAK2,> 1500 nM
same,IC50,JAK3; given as range class,< 10 nM
"C=C(CN(C)C)C(=O)Nc1cccc(-c2ncnc3[nH]cc(C(=O)OCC)c23)c1 [Example 14, Ethyl-4-[3-({2-[(dimethylamino)methyl]acryloyl}amino)phenyl]-7H-pyrrolo[2,3-d]pyrimidine-5-carboxylate]",IC50,JAK2,> 1500 nM
same,IC50,JAK3,0.066 nM
"C=C(CF)C(=O)Nc1cccc(-c2ncnc3[nH]cc(C(=O)OCC)c23)c1 [Example 15-1, Ethyl-4-(3-{[2-(fluoromethyl)acryloyl]amino}phenyl)-7H-pyrrolo[2,3-d]pyrimidine-5-carboxylate]",IC50,JAK2,> 1500 nM
same,IC50,JAK3,0.024 nM
"C=C(CO)C(=O)Nc1cccc(-c2ncnc3[nH]cc(C(=O)OCC)c23)c1 [Example 15-2, Ethyl-4-(3-{[2-(hydroxymethyl)acryloyl]amino}phenyl)-7H-pyrrolo[2,3-d]pyrimidine-5-carboxylate]",IC50,JAK2,> 1500 nM
same,IC50,JAK3,0.02 nM
"CCOC(=O)c1c[nH]c2ncnc(-c3cccc(NC(=O)/C=C/CN(C)C)c3)c12 [Example 16, Ethyl-4-(3-{[(2E)-4-(dimethylamino)but-2-enoyl]amino}phenyl)-7H-pyrrolo[2,3-d]-pyrimidine-5-carboxylate]",IC50,JAK2,> 1500 nM
same,IC50,JAK3,0.2 nM
"CCOC(=O)c1c[nH]c2ncnc(-c3cccc(NC(=O)/C(C)=C/CN(C)C)c3)c12 [Example 17, Ethyl 4-(3-{[(2E)-4-(dimethylamino)-2-methylbut-2-enoyl]amino}phenyl)-7H-pyrrolo[2,3-d]pyrimidine-5-carboxylate]",IC50,JAK2,> 1500 nM
same,IC50,JAK3,6.6 nM
"CCOC(=O)c1c[nH]c2ncnc(-c3cccc(NC(=O)C4(C)CO4)c3)c12 (stereo not shown) [Example 18-1, Ethyl-4-(3-(2-methyloxirane-2-carboxamido)phenyl)-7H-pyrrolo[2,3-d]pyrimidine-5-carboxylate]",IC50,JAK2,> 1500 nM
same,IC50,JAK3,0.056 nM
"CCOC(=O)c1c[nH]c2ncnc(-c3cccc(NC(=O)C(C)(O)CO)c3)c12 (stereo not shown) [Example 18-2, Ethyl-4-(3-(2,3-dihydroxy-2-methylpropanamido)phenyl)-7H-pyrrolo[2,3-d]pyrimidine-5-carboxylate]",IC50,JAK2; given as range class,> 500 nM
same,IC50,JAK3; given as range class,10 to 500 nM
"C=C(C)C(=O)Nc1cccc(-c2ncnc3[nH]cc(-c4ccc(CN)cc4)c23)c1 [Example 19, N-(3-{5-[4-(Aminomethyl)phenyl]-7H-pyrrolo[2,3-d]pyrimidin-4-yl}phenyl)-2-methylprop-2-enamide]",IC50,JAK2; given as range class,> 500 nM
same,IC50,JAK3; given as range class,10 to 500 nM
"C=C(C)C(=O)Nc1cccc(-c2ncnc3[nH]cc(-c4cccc(C)c4)c23)c1 [Example 20-1, 2-Methyl-N-{3-[5-(3-methylphenyl)-7H-pyrrolo[2,3-d]pyrimidin-4-yl]phenyl}prop-2-enamide]",IC50,JAK2,> 1500 nM
same,IC50,JAK3,0.17 nM
"C=C(C)C(=O)Nc1cccc(-c2ncnc3[nH]cc(-c4cccc(F)c4)c23)c1 [Example 20-2, N-{3-[5-(3-fluorophenyl)-7H-pyrrolo[2,3-d]pyrimidin-4-yl]phenyl}-2-methylprop-2-enamide]",IC50,JAK2,> 1500 nM
same,IC50,JAK3,0.59 nM
"C=C(C)C(=O)Nc1cccc(-c2ncnc3[nH]cc(-c4ccccc4F)c23)c1 [Example 20-3, N-{3-[5-(2-fluorophenyl)-7H-pyrrolo[2,3-d]pyrimidin-4-yl]phenyl}-2-methylprop-2-enamide]",IC50,JAK2,> 1500 nM
same,IC50,JAK3,0.96 nM
"C=C(C)C(=O)Nc1cccc(-c2ncnc3[nH]cc(-c4ccc(F)cc4)c23)c1 [Example 20-4, N-{3-[5-(4-fluorophenyl)-7H-pyrrolo[2,3-d]pyrimidin-4-yl]phenyl}-2-methylprop-2-enamide]",IC50,JAK2,> 1500 nM
same,IC50,JAK3,1.5 nM
"C=C(C)C(=O)Nc1cccc(-c2ncnc3[nH]cc(-c4cccc(F)c4Cl)c23)c1 [Example 20-5, N-{3-[5-(2-chloro-3-fluorophenyl)-7H-pyrrolo[2,3-d]pyrimidin-4-yl]phenyl}-2-methylprop-2-enamide]",IC50,JAK2,> 1500 nM
same,IC50,JAK3,1.5 nM
"C=C(C)C(=O)Nc1cccc(-c2ncnc3[nH]cc(-c4ccccc4C)c23)c1 [Example 20-6, 2-methyl-N-{3-[5-(2-methylphenyl)-7H-pyrrolo[2,3-d]pyrimidin-4-yl]phenyll}prop-2-enamide]",IC50,JAK2,> 1500 nM
same,IC50,JAK3,5.2 nM
"C=C(C)C(=O)Nc1cccc(-c2ncnc3[nH]cc(-c4ccc(C)cc4)c23)c1 [Example 20-7, 2-methyl-N-{3-[5-(4-methylphenyl)-7H-pyrrolo[2,3-d]pyrimidin-4-yl]phenyl}prop-2-enamide]",IC50,JAK2,> 1500 nM
same,IC50,JAK3,5.4 nM
"C=C(C)C(=O)Nc1cccc(-c2ncnc3[nH]cc(-c4c(C)cc(C)cc4C)c23)c1 [Example 20-8, 2-methyl-N-{3-[5-(2,4,6-trimethylphenyl)-7H-pyrrolo[2,3-d]pyrimidin-4-yl]phenyll}prop-2-enamide]",IC50,JAK2; given as range class,> 500 nM
same,IC50,JAK3; given as range class,10 to 500 nM
"C=CC(=O)Nc1cccc(-c2ncnc3[nH]cc(-c4ccccc4)c23)c1 [Example 20-9, N-[3-(5-phenyl-7H-pyrrolo[2,3-d]pyrimidin-4-yl)phenyl]prop-2-enamide]",IC50,JAK2,> 1500 nM
same,IC50,JAK3,0.016 nM
"C=C(C)C(=O)Nc1cccc(-c2ncnc3[nH]cc(-c4ccccn4)c23)c1 [Example 21-1, N-(3-(5-(Pyridin-2-yl)-7H-pyrrolo[2,3-d]pyrimidin-4-yl)phenyl)methacrylamide]",IC50,JAK2; given as range class,> 500 nM
same,IC50,JAK3; given as range class,10 to 500 nM
"C=C(C)C(=O)Nc1cccc(-c2ncnc3[nH]cc(-c4cnc[nH]4)c23)c1 [Example 21-2, N-(3-(5-(1H-imidazol-5-yl)-7H-pyrrolo[2,3-d]pyrimidin-4-yl)phenyl)methacrylamide]",IC50,JAK2,> 1500 nM
same,IC50,JAK3,7.5 nM
"C=C(C)C(=O)Nc1cccc(-c2ncnc3[nH]cc(-c4ccncc4)c23)c1 [Example 21-3, N-(3-(5-(pyridin-4-yl)-7H-pyrrolo[2,3-d]pyrimidin-4-yl)phenyl)methacrylamide]",IC50,JAK2; given as range class,> 500 nM
same,IC50,JAK3; given as range class,10 to 500 nM
"C=C(C)C(=O)Nc1cccc(-c2ncnc3[nH]cc(-c4cccnc4)c23)c1 [Example 21-4, N-(3-(5-(pyridin-3-yl)-7H-pyrrolo[2,3-d]pyrimidin-4-yl)phenyl)methacrylamide]",IC50,JAK2,> 1500 nM
same,IC50,JAK3,9.7 nM
"C=C(C)C(=O)Nc1cccc(-c2ncnc3[nH]cc(C4=CCOCC4)c23)c1 [Example 21-5, N-(3-(5-(3,6-dihydro-2H-pyran-4-yl)-7H-pyrrolo[2,3-d]pyrimidin-4-yl)phenyl)methacrylamide]",IC50,JAK2,> 1500 nM
same,IC50,JAK3,5 nM
"C=C(C)C(=O)Nc1cccc(-c2ncnc3[nH]cc(-c4cnc(C)s4)c23)c1 [Example 21-6, N-(3-(5-(2-methylthiazol-5-yl)-7H-pyrrolo[2,3-d]pyrimidin-4-yl)phenyl)methacrylamide]",IC50,JAK2,> 1500 nM
same,IC50,JAK3,10.3 nM
"C=C(C)C(=O)Nc1cccc(-c2ncnc3[nH]cc(-c4cncs4)c23)c1 [Example 21-7, N-(3-(5-(thiazol-5-yl)-7H-pyrrolo[2,3-d]pyrimidin-4-yl)phenyl)methacrylamide]",IC50,JAK2,> 500 nM
same,IC50,JAK3,1.8 nM
"C=C(C)C(=O)Nc1cccc(-c2ncnc3[nH]cc(-c4ncco4)c23)c1 [Example 22, N-(3-(5-(Oxazol-2-yl)-7H-pyrrolo[2,3-d]pyrimidin-4-yl)phenyl)methacrylamide]",IC50,JAK2,> 1500 nM
same,IC50,JAK3,8 nM
"C=C(C)C(=O)Nc1cccc(-c2ncnc3[nH]cc(C4CCOCC4)c23)c1 [Example 23, N-(3-(5-(Tetrahydro-2H-pyran-4-yl)-7H-pyrrolo[2,3-d]pyrimidin-4-yl)phenyl)methacrylamide]",IC50,JAK2,> 1500 nM
same,IC50,JAK3,8.3 nM
"C=C(C)C(=O)N(C)c1cccc(-c2ncnc3[nH]cc(C4CCOCC4)c23)c1 [Example 24, N-Methyl-N-(3-(5-(tetrahydro-2H-pyran-4-yl)-7H-pyrrolo[2,3-d]pyrimidin-4-yl)phenyl)methacrylamide]",IC50,JAK2; given as range class,> 500 nM
same,IC50,JAK3; given as range class,> 500 nM
"C=C(C)C(=O)Nc1cccc(-c2ncnc3[nH]cc(C4CCCO4)c23)c1 (stereo not shown) [Example 25, N-(3-(5-(Tetrahydrofuran-2-yl)-7H-pyrrolo[2,3-d]pyrimidin-4-yl)phenyl)methacrylamide]",IC50,JAK2; given as range class,> 500 nM
same,IC50,JAK3; given as range class,10 to 500 nM
"C=C(C)C(=O)Nc1cccc(-c2ncnc3[nH]cc(-c4nnc(C)o4)c23)c1 [Example 26, N-(3-(5-(5-Methyl-1,3,4-oxadiazol-2-yl)-7H-pyrrolo[2,3-d]pyrimidin-4-yl)phenyl)methacrylamide]",IC50,JAK2,> 1500 nM
same,IC50,JAK3,2.5 nM
"C=C(C)C(=O)Nc1cccc(-c2ncnc3[nH]cc(-c4nnc(C)s4)c23)c1 [Example 27, N-(3-(5-(5-Methyl-1,3,4-thiadiazol-2-yl)-7H-pyrrolo[2,3-d]pyrimidin-4-yl)phenyl)methacrylamide]",IC50,JAK2; given as range class,> 500 nM
same,IC50,JAK3; given as range class,10 to 500 nM
"C=C(C)C(=O)Nc1cccc(-c2ncnc3[nH]cc(C4=NCC(C)O4)c23)c1 (stereo not shown) [Example 28, N-(3-(5-(5-Methyl-4,5-dihydrooxazol-2-yl)-7H-pyrrolo[2,3-d]pyrimidin-4-yl)phenyl)methacrylamide]",IC50,JAK2; given as range class,> 500 nM
same,IC50,JAK3; given as range class,10 to 500 nM
"C=C(C)C(=O)Nc1cccc(-c2ncnc3[nH]cc(-c4nc(C)co4)c23)c1 [Example 29, N-(3-(5-(4-Methyloxazol-2-yl)-7H-pyrrolo[2,3-d]pyrimidin-4-yl)phenyl)methacrylamide]",IC50,JAK2; given as range class,> 500 nM
same,IC50,JAK3; given as range class,10 to 500 nM
